Series [1] deals with HBEC3 KT cells. Description: cell-free area closure of annular monolayers formed by magnetic exclusion. The note with it: for closure rate of cell-free area: 0 h to 16 h, N=3. It is filed as cell-based, human. On the procedure:
The cells were maintained at 37° C. and 5% CO2 in a humidified atmosphere.
The magnetic exclusion technique was applied to form annular HBEC3 KT monolayers in which HBEC3 KT cells were trypsinized at ˜80% confluency. A 96-well flat-bottom TCT plate (IBIDI) was placed on an array of coaxially arranged ring and cylinder magnets (N52 grade, Zigmyster Magnets). The stock gadolinium-based paramagnetic solution (1 M) was diluted to 25×10^−3 M using the serum-free culture medium. A 250 μL suspension of ˜50,000 cells in 25×10^−3 M paramagnetic solution was added to the wells. After a 3 h incubation period (37° C. and 5% CO2 in a humidified atmosphere), the well plate was removed from the magnet array. The paramagnetic solution was removed, and the wells were washed twice with 200 μL culture medium. […] Tissue culture wells were plasma treated to enhance the attachment of the ECM proteins to the well surfaces. A 300 μL solution of collagen I (500 μg mL^−1) and fibronectin (12 μg mL^−1) was added to the wells. The well plate was incubated at 4° C. overnight, and subsequently, the coated wells were rinsed with phosphate-buffered saline (PBS). Annular HBEC3 KT monolayers were assembled magnetically on the coated surfaces. A fluorescent dye solution of 2 μM Calcein AM and Hoechst 33342 (2 drops per mL) was used to stain the monolayers. Brightfield and fluorescent images were taken using a 10× objective of an EVOS M7000 inverted microscope (ThermoFisher). Excitation/emission wavelengths of 470/525 nm and 357/447 nm were used for Calcein AM and Hoechst 33342, respectively.
The experimental study also involved assessing annular HBEC3 KT monolayer formation by gravitational settling. Annular inserts were 3D printed with a Formlabs Form 2 printer using a clear resin (RS-F2-GPCL-04). The inserts were attached to the well surfaces of a 12-well plate using patterned double-sided silicone adhesive tapes. The well plates containing the inserts were sterilized with UV radiation. A 100 μL suspension of ˜50,000 HBEC3 KT cells in culture medium was added to the inserts. After a 3 h incubation period, the inserts were removed, and the wells were washed twice with 500 μL culture medium.
Cell counting and geometric measurements were automatically determined in the experimental study from fluorescent images with ImageJ Fiji. The watershed segmentation algorithm (Process—Binary—Watershed) was used to distinguish cells in high cell density regions. The brightfield image contrast was adjusted using the Enhance Local Contrast (CLAHE) ImageJ plugin to measure the cell-free area. The Sobel edge detection algorithm (Process—Find edges) was used to highlight the boundaries of the monolayers. Next, image smoothing was performed using the Gaussian Blur filter (Process—Filter—Gaussian Blur). The cell-free areas were measured automatically after setting the image threshold. The equivalent diameters were calculated from the cell-free areas. The monolayer annulus width was determined by taking the average of the annulus widths measured at four orthogonal positions. The straight-line tool of ImageJ was used for the measurements.
The cell-free area closure of the annular monolayers was also studied in the experiments. […] The annular monolayers were produced on TCT and collagen I-fibronectin coated well surfaces to investigate the influence of the underlying substrate on the closure rate.
The initial boundary of the cell-free region is marked by a white dotted line (e.g., see FIG. 6A).
The closure rates are calculated by measuring the differences between the mean initial and final cell-free areas at 0 h and 16 h.

In series [2] the test system is HBEC3 KT cells. Description: reaction-diffusion (FKPP/Porous-Fisher) numerical model and logistic growth fit of cell-free area closure. On the set-up: species or system human. The note with it: for growth rate λ: from logistic growth equation, U at 16 h and U0; for D0 / D1 / m: Replicate 1. The procedure: Numerical model: The Fisher—Kolmogorov—Petrovsky—Piskunov (FKPP) reaction-diffusion equation is routinely used to model the closure of rectangular cell-free areas in scratch-based assays^27,47,48. The FKPP equation consists of a diffusion term that describes cell migration and a source term representing cell proliferation. The one-dimensional axisymmetric form of the FKPP equation is given by equation (6):^49
where U denotes the cell density (cells mm^−2) and D the cell diffusivity (mm^2 h^−1). The source term consists of a logistic growth function G=λ(1−U/K) with growth rate λ(h^−1) and carrying capacity K (cells mm^−2)^47. The carrying capacity is the maximum density for a cell monolayer when contact inhibition reduces the net cell proliferation to zero^47. The classical FKPP model assumes a constant cell diffusivity D=D0, where D0 is the diffusivity for isolated cells^27,47. In contrast, the Porous-Fisher model, which is an extension of the FKPP model, uses a diffusivity function D=D0(U/K)^m that increases with cell density (m>0), where D0 denotes the maximum diffusivity^47,50.
Besides cell migration, cell proliferation leads to the closure of cell-free areas. To determine […], a logistic growth equation^51 was used as shown in equations 7 and 8:
where U0 denotes the initial cell density. The maximum cell density determined by counting cells in the confluent regions of annular HBEC 3KT monolayers gives K=1690 cells mm^−2, which is consistent with the previously reported values^28,52. Experimentally derived values of U at 16 h and U0 were used to calculate λ from Equation 8.
Brightfield images of the annular monolayers were taken every 2 h over 16 h to track the closures of the cell-free areas on TCT surfaces. Consistent with the monolayer geometry, circular tracks of ˜0.14 mm width were superimposed on the brightfield images to manually count the cells within the domain 0≤r≤Rmax. The total number of cells counted in each track was divided by the respective annulus area to generate experimental cell density datasets. In the cell density plots, each track was represented by the radial distance of its midpoint from the center of the annular monolayer.
The finite volume method (FVM) with a time marching scheme was used to discretize and predict cell density (Up) values from Equation 6. A linear combination of the classical FKPP and Porous-Fisher diffusivity functions were used, i.e., D=D0+D1(U/K)^m, to model the spatiotemporal change in cell density on the TCT surfaces. The combined diffusivity function was previously used to fit cell density profiles of scratch assays with rectangular cell-free areas^50. A zero net flux boundary condition was imposed at both r=0 and r=Rmax^28,50.
As the cell density decreases at the boundary Rmax, the zero net flux condition applied at this boundary is an approximation. A Genetic Algorithm (GA)-based error minimization approach was implemented to minimize the root mean squared error (RMSE) between Up and the experimental (Uexp) cell density values^53 as shown in equation 9.
The cell density was measured at 15 locations within 0≤r≤Rmax and the index i denotes the location number. The index j indicates timepoints, where j=1, 2, 3 and 4 corresponds to t=4, 8, 12 and 16 h. […] The limits for D0 are 0≤D0≤0.004 mm^2 h^−1, where D0=0.004 mm^2 h^−1 is the maximum isolated-cell diffusivity value reported in the literature^28,50.
The experimentally obtained cell-free area closure rates were approximately two orders higher than the maximum value of D0(Section 2.3). […] The exponent m determines whether the diffusivity D changes linearly or non-linearly with a change in cell density. However, the biological meaning of m is not yet fully understood^47. Here, the limits 0≤m≤4 are considered, where m=4 is the highest value reported in the literature^28,50. The experimentally derived values of λ are used in the model. […]

Series [3] concerns HBEC3 KT cells. The series is described as follows: resazurin-based metabolism assay (Presto Blue HS). Type of series: cell-based. The note with it: 25×10^−3 M paramagnetic solution 3 h, then 24, 48, 96 and 144 h. The procedure:
The experimental study also involved performing a metabolism assay. A 250 μL suspension of ˜4000 HBEC3 KT cells in 25×10^−3 M paramagnetic solution was added to the wells of a 96-well plate. Following a 3 h incubation period, the paramagnetic solution was replaced with the culture medium. An equal number of cells suspended in the culture medium were added to the wells as controls. A resazurin-based assay (Presto Blue HS, ThermoFisher) was used to analyze cell metabolism at 24, 48, 96, and 144 h. The fluorescence intensity was measured at multiple spots within each well using excitation/emission wavelengths of 560/590 nm (SpectraMax i3, Molecular Devices). Blank wells containing only culture medium were used to account for background fluorescence. The average fluorescence intensity of the blanks was subtracted from the average fluorescence value obtained from each well of the Gadolinium and control groups.
In the experimental study, all statistical tests were performed using the GraphPad Prism software (version 9.0.0). […]
(§1) The effect of the residual Gd^3+ on cell viability was assessed at 24, 48, 96, and 144 h using a live/dead assay. […] Cell metabolism, which is an indicator of viability, was also measured using a resazurin-based assay (Presto Blue HS). The increase in the fluorescence intensity values over time indicates cell proliferation.

The subject of series [4] is HBEC3 KT cells. Description: transcriptome analysis (Clariom S microarray). The conditions noted are these: 25×10^−3 M paramagnetic solution 3 h, RNA after 24 h, 21,448 genes, fold-change cutoff 2, FDR p<0.05, N=4. It is filed as cell-based, human. On the procedure: The experimental study also involved performing transcriptome analysis. A 1.5 mL suspension of ˜500,000 HBEC3 KT cells in 25×10^−3 M paramagnetic solution was added to the wells of a 12-well TCT plate. Following a 3 h incubation period, the paramagnetic solution was replaced with the culture medium. After 24 h, total RNA was isolated and purified using RNeasy Mini Kit (Qiagen) as per the manufacturer's protocol. The RNA concentration and purity were measured using a spectrophotometer (NanoDrop, ThermoFisher). Transcriptome analysis was performed using Clariom S microarray gene chips (ThermoFisher).
In the experimental study, all statistical tests were performed using the GraphPad Prism software (version 9.0.0). Two-way ANOVA with Bonferroni post hoc tests were performed to assess the effect of residual Gd^3+ on cell viability and metabolism over time. […] A p-value<0.05 was considered statistically significant. The statistical evaluation of the microarray datasets was performed using the transcriptome analysis console (TAC) software (ThermoFisher). The raw gene expression data were normalized using the signal space transformation-robust multiarray analysis (SST-RMA) algorithm^57. A fold-change cutoff value of 2 was used to identify the differentially expressed genes^42. […]

The subject of series [5] is HBEC3 KT cells. Description: live/dead assay (NucBlue Live / NucGreen Dead). Type of series: cell-based. On the procedure:
The experimental study also involved performing live/dead assays. A 400 μL suspension of ˜5000 HBEC3 KT cells in 25×10^−3 M paramagnetic solution was added to the wells of a 48-well TCT plate. After a 3 h incubation period, the paramagnetic solution was replaced with the culture medium. As controls, an equal number of cells were seeded into wells containing only the culture medium. The cell viability was assessed using the NucBlue Live and NucGreen Dead nuclear acid stains (ReadyProbes, ThermoFisher). Fluorescent images were taken at 24, 48, 96, and 144 h. Excitation/emission wavelengths of 357/447 nm and 470/525 nm were used for NucBlue and NucGreen, respectively. The quantification of live and dead cells was performed using ImageJ Fiji.
In the experimental study, all statistical tests were performed using the GraphPad Prism software (version 9.0.0). Two-way ANOVA with Bonferroni post hoc tests were performed to assess the effect of residual Gd^3+ on cell viability and metabolism over time. […] A p-value<0.05 was considered statistically significant. […]
as §1

The subject of series [6] is cells. The conditions noted are these: concentration of 25 mM; cited from earlier work.
The mark [7] stands for this setting: EGF 0.16 ng mL^−1, TCT surfaces.
[8] abbreviates: EGF 0.80 ng mL^−1, TCT surfaces.

The values below come from US20240263163A1, “CELL-FREE REGIONS BY LABEL-FREE MAGNETIC EXCLUSION” (McMaster University, priority 2021, published 2024).

Entries after “also recorded” stand apart in the source; their conditions may differ.

Regarding epidermal growth factor [EGF], the “closure rate of cell-free area” value in series [1] (TCT surfaces, 0.16 ng mL^−1 EGF) is listed as around 0.56±0.05 mm^2 h^−1; in series [1] (TCT surfaces, 0.8 ng mL^−1 EGF), around 0.58±0.01 mm^2 h^−1; in series [1] (collagen I-fibronectin surfaces, 0.16 ng mL^−1 EGF) it was around 0.61±0.01 mm^2 h^−1; in series [1] (collagen I-fibronectin surfaces, 0.8 ng mL^−1 EGF) it was around 0.62±0.02 mm^2 h^−1. In series [1] (collagen I-fibronectin surfaces, 0.8 ng mL^−1 EGF, at 4 h, in contrast to TCT surfaces), the “change in cell-free areas” value is “significant decrease”. Further, the “closure of cell-free regions” value in series [1] (collagen I-fibronectin surfaces, 0.8 ng mL^−1 EGF, at 16 h) was “near-complete closure”. For the same compound, the “growth rate λ” value in series [2] (0.16 ng mL^−1 EGF) and in series [2] (0.8 ng mL^−1 EGF) was around 0.03 h⁻¹ in each case. In addition, the λ in series [2] (EGF 0.16 ng mL^−1) and in series [2] (EGF 0.80 ng mL^−1) was 2.91 h^−1 (×10^−2) throughout. Moreover, the results for the D0 in series [2] (setting [7]) and in series [2] (setting [8]) were 3.06 mm^2 h^−1 (×10^−3) and 3.91 mm^2 h^−1 (×10^−3), respectively. For the same compound, the D1 turned out to be 3.02 mm^2 h^−1 in series [2] (setting [7]) and 3.75 mm^2 h^−1 in series [2] (setting [8]). Also, the m in series [2] (setting [7]) is 1.97; in series [2] (setting [8]) it was 2.62. In addition, the “φ (dimensionless number, higher indicates faster closure)” value is on record as 3.23 in series [2] (EGF 0.16 ng mL^−1, tmax=24 h) and 3.60 in series [2] (EGF 0.80 ng mL^−1, tmax=24 h).
Regarding `[Gd+3]` [Gd^3+], in series [3], the “cell metabolism (fluorescence intensity) vs control” value is listed as “No significant difference”. The “effect on closure of magnetically assembled monolayers” value in series [1] (vs gravity-assisted monolayers, no EGF, 0 and 16 h, TCT surfaces) was “insignificant”. In addition, the “differential gene expression / impact on transcriptional profiles” value in series [4] is reported as “no statistically significant differentially expressed genes; also recorded: statistically insignificant”. Further, in series [5] (25×10^−3 M paramagnetic solution 3 h, then 24, 48, 96 and 144 h, vs control), the “effect on cell viability (viable cell counts)” value was “insignificant”. Further, the “toxicity to the cells” value in series [5] (live/dead and metabolism assays, residual Gd^3+) was “not toxic”. Besides, in series [6], the “effect on cell viability” value was “does not affect cell viability”.
